Experimental data from ChEMBL document CHEMBL1140668, “Antifungal activity in triterpene glycosides from the sea cucumber Actinopyga lecanora” (2007).
Values after ≈ are worked out from the molar mass of the structure shown.

How the values were obtained:
Candida parapsilosis = assay: Antifungal activity against Candida parapsilosis ATCC 22019; format: functional; settings: Lodderomyces parapsilosis
Trichophyton benhamiae = assay: Antifungal activity against Trichophyton mentagrophytes; format: functional, Arthroderma benhamiae
Cryptococcus neoformans [1] = assay: Antifungal activity against Cryptococcus neoformans; format: functional
Aspergillus fumigatus = assay: Antifungal activity against Aspergillus fumigatus; format: functional
Sporothrix schenckii = assay: Antifungal activity against Sporothrix schenckii; format: functional
Candida albicans [2] = assay: Antifungal activity against Candida albicans; format: functional
Candida albicans [3] = assay: Antifungal activity against Candida albicans MTCC 227; format: functional
Candida albicans [4] = assay: Antifungal activity against Candida albicans ATCC 66027; format: functional
Candida albicans [5] = assay: Antifungal activity against Candida albicans ATCC 14053; format: functional
Candida albicans [6] = assay: Antifungal activity against Candida albicans ATCC 10231; format: functional
Aspergillus flavus = assay: Antifungal activity against Aspergillus flavus; format: functional
Pichia kudriavzevii = assay: Antifungal activity against Candida krusei ATCC 6258; format: functional
Aspergillus terreus = assay: Antifungal activity against Aspergillus terreus IMI 235704; format: functional
Cryptococcus neoformans [7] = assay: Antifungal activity against Filobasidiella neoformans MTCC 1346; format: functional
Candida albicans [8] = assay: Antifungal activity against Candida albicans ATCC 60193; format: functional
Cryptococcus neoformans [9] = assay: Antifungal activity against Cryptococcus neoformans ATCC 6603; format: functional
Talaromyces funiculosus = assay: Antifungal activity against Penicillium funiculosum MTCC 287; format: functional
Penicillium ochrochloron = assay: Antifungal activity against Penicillium ochrochloron MTCC 517; format: functional
Candida albicans [10] = assay: Antifungal activity against Candida albicans MTCC 183; format: functional
Trichophyton rubrum = assay: Antifungal activity against Trichophyton rubrum MTCC 296; format: functional

SMILES	MIC (Candida parapsilosis) [µg/mL]	MIC (Trichophyton benhamiae) [µg/mL]	MIC (Cryptococcus neoformans [1]) [µg/mL]	MIC (Aspergillus fumigatus) [µg/mL]	MIC (Sporothrix schenckii) [µg/mL]	MIC (Candida albicans [2]) [µg/mL]	MIC (Candida albicans [3]) [µg/mL]	MIC (Candida albicans [4]) [µg/mL]	MIC (Candida albicans [5]) [µg/mL]	MIC (Candida albicans [6]) [µg/mL]	MIC (Aspergillus flavus) [µg/mL]	MIC (Pichia kudriavzevii) [µg/mL]	MIC (Aspergillus terreus) [µg/mL]	MIC (Cryptococcus neoformans [7]) [µg/mL]	MIC (Candida albicans [8]) [µg/mL]	MIC (Cryptococcus neoformans [9]) [µg/mL]	MIC (Talaromyces funiculosus) [µg/mL]	MIC (Penicillium ochrochloron) [µg/mL]	MIC (Candida albicans [10]) [µg/mL]	MIC (Trichophyton rubrum) [µg/mL]
CC(=O)O[C@H]1C[C@@]2(C)C3=CCC4C(C)(C)[C@@H](O[C@@H]5OC[C@@H](O)[C@H](O)[C@H]5O)CC[C@]4(C)C3CCC23C(=O)O[C@@](C)(CCCC(C)C)[C@@H]13 (some centres not stated)	50 (≈ 77.3 µM)	25 (≈ 38.6 µM)	25 (≈ 38.6 µM)	50 (≈ 77.3 µM)	25 (≈ 38.6 µM)	50 (≈ 77.3 µM)														
CO[C@@H]1[C@@H](O)[C@H](O[C@@H]2[C@@H](O)[C@H](O[C@H]3[C@H](O)[C@@H](O)[C@H](O[C@H]4[C@H](O[C@H]5CC[C@]6(C)C7=C[C@H](O)[C@@]89C(=O)O[C@@](C)(C%10CCC(C)(C)O%10)[C@@]8(O)CC[C@@]9(C)[C@@H]7CC[C@H]6C5(C)C)OC[C@@H](OS(=O)(=O)[O-])[C@@H]4O)O[C@@H]3C)O[C@H](CO)[C@H]2O)O[C@H](CO)[C@H]1O.[Na+] (some centres not stated) [HOLOTHURIN A]		25	25	50	25	50														
C[C@H]1O[C@@H](O[C@H]2[C@H](O[C@H]3CC[C@]4(C)C5=C[C@H](O)C67C(=O)O[C@@](C)(C8CCC(C)(C)O8)[C@@]6(O)CC[C@@]7(C)[C@@H]5CCC4C3(C)C)OC[C@@H](OS(=O)(=O)[O-])[C@@H]2O)[C@H](O)[C@@H](O)[C@@H]1O.[Na+] (some centres not stated) [HOLOTHURIN B]	6.25	1.56	3.12	3.12	1.56	3.12	12.5	25	12.5	25	12.5	12.5	25	6.25	12.5	3.12	12.5	12.5	25	3.12
OC(Cn1cncn1)(Cn1cncn1)c1ccc(F)cc1F [FLUCONAZOLE]	1 (≈ 3.27 µM)	2 (≈ 6.53 µM)	1 (≈ 3.27 µM)	2 (≈ 6.53 µM)	1 (≈ 3.27 µM)	0.5 (≈ 1.63 µM)														
